Among the data in patent publication US9447122B2, “Arginase inhibitors and methods of use thereof” (AstraZeneca AB, priority 2010, dated 2016) are Ki values, retold here.

In one test the target is T1, human arginase I (Homo sapiens, UniProt P05089).
T1 sequence (P05089 1-322): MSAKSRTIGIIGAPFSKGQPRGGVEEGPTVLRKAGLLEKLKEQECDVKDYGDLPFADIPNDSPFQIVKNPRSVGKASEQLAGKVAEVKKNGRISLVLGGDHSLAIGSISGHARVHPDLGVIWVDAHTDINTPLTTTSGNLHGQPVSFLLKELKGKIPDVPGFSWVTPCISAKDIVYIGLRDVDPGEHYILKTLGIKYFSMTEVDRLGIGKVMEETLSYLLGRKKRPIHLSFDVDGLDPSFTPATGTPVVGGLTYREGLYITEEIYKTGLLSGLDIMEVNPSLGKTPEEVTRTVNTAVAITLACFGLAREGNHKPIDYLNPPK
In words: Arginase inhibition, QuantiChrom colorimetric urea assay, IC50 converted to Ki. It counts as biochemical. To be noted: Table 3. How it is done:
(§1) For some compounds, their inhibitory potency at pH 7.5 was compared to the inhibitory potency of ABH at pH 7.5.
(§2) Quantitative determination of arginase activity was performed in a 96-well format by a colorimetric method using the QuantiChrom™ Arginase Assay Kit available from BioAssay Systems (Hayward, Calif., Catalog No. DARG-200) according to the manufacturer's protocol. Modifications were made to reagent quantities to suit the assaying of a highly purified sample.
(§3) The intensity of the color was directly proportional to the arginase activity in the sample.
(§4) The rate of urea production was measured in the presence of twelve different concentrations of each potential inhibitor compound. In a typical assay, seven different compounds were tested relative to a control inhibitor (e.g. ABH) against one enzyme (either human ArgI or human ArgII) at a particular pH (either 9.5 or 7.5). The pH of the solution was controlled using an appropriate pH buffering compound at 60 mM concentrations; for example, 60 mM glycine (pH 9.5) or 60 mM HEPES (pH 7.5). The half maximal inhibitory concentration (IC50) was determined by constructing a dose-response curve.

In another test the target is T2, human arginase II (Homo sapiens, UniProt P78540).
T2 sequence (P78540 23-354): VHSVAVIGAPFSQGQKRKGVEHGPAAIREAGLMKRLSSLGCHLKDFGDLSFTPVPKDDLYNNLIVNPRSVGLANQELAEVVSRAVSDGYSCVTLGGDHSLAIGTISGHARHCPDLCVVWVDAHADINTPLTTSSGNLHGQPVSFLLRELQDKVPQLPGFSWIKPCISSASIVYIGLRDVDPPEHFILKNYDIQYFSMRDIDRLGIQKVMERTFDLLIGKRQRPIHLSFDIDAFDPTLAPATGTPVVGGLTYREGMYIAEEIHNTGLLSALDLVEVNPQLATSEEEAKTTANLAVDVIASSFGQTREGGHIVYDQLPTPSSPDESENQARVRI
The test is described as above. In kind it is biochemical. To be noted: Table 3. How it is done:
as §1, §2, §3, §4

Where [1] appears, read: pH 7.5, read-out: human Arginase I pH 7.5, Ki assigned value.
Setting [2] is: pH 9.5, read-out: human Arginase I pH 9.5, Ki assigned value.
Setting [3] is: pH 7.5, read-out: human Arginase II pH 7.5, Ki assigned value.
Setting [4] is: pH 9.5, read-out: human Arginase II pH 9.5, Ki assigned value.

Like-named read-outs stand apart in the source and are kept apart here. Some results are limits rather than exact numbers.

By Ki is commonly meant the dissociation constant of the complex between target and ligand, obtained from inhibition or displacement.

In the case of `NC(CCCCB(O)O)(CCCN1CCC(Oc2ccc(C(F)(F)F)cc2)CC1)C(=O)O` (centres unmarked) [Example 34], the Ki at human arginase I (setting [1]) was below 10 nM; at human arginase I (setting [2]), below 10 nM; at human arginase II (setting [3]) it was below 10 nM; at human arginase II (setting [4]), 11 to 50 nM.
For the molecule `NC(CCCCB(O)O)(CCCN1CCN(Cc2cccc(F)c2F)CC1)C(=O)O` (centres unmarked) [Example 7], the Ki on human arginase I (setting [1]) is below 10 nM; on human arginase I (setting [2]), 11 to 50 nM; at human arginase II (setting [3]) it was 11 to 50 nM; at human arginase II (setting [4]), 51 to 100 nM.
Consider `COCCN(C)CCCC(N)(CCCCB(O)O)C(=O)O` (centres unmarked) [Example 85], for which the Ki at human arginase I (setting [1]) was in the range of 11 to 50 nM; at human arginase I (setting [2]) it was 11 to 50 nM; on human arginase II (setting [3]), 11 to 50 nM; on human arginase II (setting [4]), 101 to 250 nM.
In the case of `NC(CCCCB(O)O)(CCCN1CCC(NC(=O)Nc2ccc(Cl)c(Cl)c2)C1)C(=O)O` (centres unmarked) [Example 112], the Ki at human arginase I (setting [1]) is below 10 nM; on human arginase I (setting [2]), below 10 nM; at human arginase II (setting [3]), below 10 nM; at human arginase II (setting [4]), 11 to 50 nM.
Consider `NC(CCCCB(O)O)(CCCN1CCC2(CC1)C(=O)NCN2c1ccccc1)C(=O)O` (centres unmarked) [Example 31], for which the Ki on human arginase I (setting [1]) is below 10 nM; at human arginase I (setting [2]), 11 to 50 nM; at human arginase II (setting [3]), below 10 nM; on human arginase II (setting [4]), 51 to 100 nM.
As to `NC(CCCCB(O)O)(CCCn1cnc2ccccc21)C(=O)O` (centres unmarked) [Example 116], the Ki lay within 251 to 400 nM on human arginase I (setting [1]), 11 to 50 nM at human arginase I (setting [2]), 11 to 50 nM at human arginase II (setting [3]) and 11 to 50 nM on human arginase II (setting [4]).
In the case of `CN(CCCC(N)(CCCCB(O)O)C(=O)O)Cc1ccc2ccccc2c1` (centres unmarked) [Example 120], the Ki at human arginase I (setting [1]) is below 10 nM; at human arginase I (setting [2]), 11 to 50 nM; at human arginase II (setting [3]) it was below 10 nM; on human arginase II (setting [4]), below 10 nM.
Consider `NC(CCCCB(O)O)(CCC1CCCCN1Cc1ccc(F)c(F)c1)C(=O)O` (centres unmarked) [Example 21], for which the Ki at human arginase I (setting [1]) was 11 to 50 nM; on human arginase I (setting [2]), 11 to 50 nM; on human arginase II (setting [3]) it was 51 to 100 nM; on human arginase II (setting [4]), 51 to 100 nM.
`CN(CCCC(N)(CCCCB(O)O)C(=O)O)CCc1ccccc1` (centres unmarked) [Example 68]: the Ki on human arginase I (setting [1]), on human arginase I (setting [2]), at human arginase II (setting [3]) and on human arginase II (setting [4]) was 11 to 50 nM throughout.
With `NC(CCCCB(O)O)(CCCN1CCC(Nc2ccccc2)CC1)C(=O)O` (centres unmarked) [Example 103], the Ki at human arginase I (setting [1]) is below 10 nM; at human arginase I (setting [2]), 11 to 50 nM; on human arginase II (setting [3]), below 10 nM; on human arginase II (setting [4]), 11 to 50 nM.
In the case of `NC(CCCCB(O)O)(CCCCN1CCC(Cc2ccc(F)c(F)c2)CC1)C(=O)O` (centres unmarked) [Example 95], the Ki on human arginase I (setting [1]) is 51 to 100 nM; at human arginase I (setting [2]) it was below 10 nM; at human arginase II (setting [3]), 11 to 50 nM; at human arginase II (setting [4]), below 10 nM.
Regarding `NC(CCCCB(O)O)(CCCCN1CCc2ccccc2C1)C(=O)O` (centres unmarked) [Example 96], the Ki on human arginase I (setting [1]), at human arginase I (setting [2]), on human arginase II (setting [3]) and at human arginase II (setting [4]) was 11 to 50 nM each time.
As to `NC(CCCCB(O)O)(CCCNC1CCCCC1)C(=O)O` (centres unmarked) [Example 77], the Ki is below 10 nM at human arginase I (setting [1]), below 10 nM at human arginase I (setting [2]), below 10 nM at human arginase II (setting [3]) and 11 to 50 nM at human arginase II (setting [4]).
With `NC(CCCCB(O)O)(CCCCN1CCNCC1)C(=O)O` (centres unmarked) [Example 93], the Ki at human arginase I (setting [1]) was 11 to 50 nM; on human arginase I (setting [2]), 11 to 50 nM; on human arginase II (setting [3]) it was above 400 nM; on human arginase II (setting [4]), 11 to 50 nM.
Consider `NC(CCCCB(O)O)(CCCN1CCC(NC(=O)c2ccccc2)CC1)C(=O)O` (centres unmarked) [Example 44], for which the Ki at human arginase I (setting [1]) is below 10 nM; at human arginase I (setting [2]), 11 to 50 nM; on human arginase II (setting [3]), below 10 nM; on human arginase II (setting [4]) it was 11 to 50 nM.
In the case of `NC(CCCCB(O)O)(CCCN1CCCC1c1ccc(-c2ccccc2)cc1)C(=O)O` (centres unmarked) [Example 54], the Ki on human arginase I (setting [1]) fell in the range of 11 to 50 nM; on human arginase I (setting [2]) it was 11 to 50 nM; on human arginase II (setting [3]), 11 to 50 nM; at human arginase II (setting [4]), 51 to 100 nM.
As to `NC(CCCCB(O)O)(CCCN1CCC(C(=O)c2ccc(F)cc2)CC1)C(=O)O` (centres unmarked) [Example 101], the Ki at human arginase I (setting [1]) is below 10 nM; on human arginase I (setting [2]) it was 11 to 50 nM; at human arginase II (setting [3]), below 10 nM; at human arginase II (setting [4]), 11 to 50 nM.
